Data taken from publication PMC7289955, “The Role of Dopamine in the Stimulant Characteristics of Novel Psychoactive Substances (NPS)—Neurobiological and Computational Assessment Using the Case of Desoxypipradrol (2-DPMP)” (Frontiers in Pharmacology, 2020).

Target: T1, dopamine transporter (DAT) (Rattus norvegicus, UniProt P23977)
T1 construct: gene Slc6a3; native DAT in rat brain sections (nucleus accumbens shell and caudate-putamen)
Assay: […]RTI-121 displacement, quantitative autoradiography on rat brain sections

T1 sequence (P23977 whole entry): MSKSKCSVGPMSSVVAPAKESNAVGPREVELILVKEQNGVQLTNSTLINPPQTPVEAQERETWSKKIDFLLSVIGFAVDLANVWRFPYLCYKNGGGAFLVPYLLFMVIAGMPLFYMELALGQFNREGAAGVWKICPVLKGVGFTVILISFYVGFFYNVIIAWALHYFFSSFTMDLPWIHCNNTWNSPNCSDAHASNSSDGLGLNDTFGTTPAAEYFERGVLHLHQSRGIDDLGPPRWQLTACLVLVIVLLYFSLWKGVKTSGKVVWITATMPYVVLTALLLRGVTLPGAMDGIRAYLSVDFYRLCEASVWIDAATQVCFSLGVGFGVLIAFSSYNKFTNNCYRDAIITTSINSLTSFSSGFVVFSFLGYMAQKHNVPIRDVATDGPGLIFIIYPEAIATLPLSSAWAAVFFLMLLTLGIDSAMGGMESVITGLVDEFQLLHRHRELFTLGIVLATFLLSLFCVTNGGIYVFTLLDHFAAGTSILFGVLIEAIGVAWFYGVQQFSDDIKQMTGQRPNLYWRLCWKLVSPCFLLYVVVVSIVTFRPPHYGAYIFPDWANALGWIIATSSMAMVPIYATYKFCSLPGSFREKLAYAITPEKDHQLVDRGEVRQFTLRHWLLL

c1ccc(C(c2ccccc2)C2CCCCN2)cc1 (stereo not shown) [2-DPMP, 2-diphenylmethylpiperidine]
IC50: 0.565 µM
